The assay addresses T1, telomerase enzyme (Homo sapiens, UniProt O14746).
T1 construct: telomerase enzyme diluted in a buffer
The assay is described as follows: Flash Plate-based telomerase assay. Type of assay: biochemical. Particulars: telomerase inhibition; two hours of incubation at 37°; Flash Plate hybridization readout. From the text:
The telomerase activity of the compounds of the invention has been evaluated using a Flash Plate-based assay. […] Other methods for determining the inhibitory concentration of a compound of the invention against telomerase can be employed as will be apparent to a person skilled in the art based on the disclosure herein.
Briefly, the assay mixture is costituted by: • telomerase enzyme diluted in a buffer, the composition of which has been selected to maintain the enzyme activity stable along the duration of the assay. • dNTPs, deoxynucleotides 5′-triphosphate. • biotynilated oligo as primer. • increasing concentrations of test compounds/positive control.
After two hours of incubation at 37° degrees the telomeric repeats added are evaluated by hybridization in solution with a 3′-labeled short oligonucleotide probe.
The extent of hybridization is then quantitated by transferring the reaction mixture in a streptavidin-coated flash plate, where the binding between biotin and streptavidin occurs.
The telomerase activity is proportional to the radioactivity measured and the inhibitory activity of the compounds is evaluated as IC50 using the Sigma Plot fit program.
With the above-described method, IC50 values of the compounds of the present invention were determined.
T1 sequence (O14746 whole entry): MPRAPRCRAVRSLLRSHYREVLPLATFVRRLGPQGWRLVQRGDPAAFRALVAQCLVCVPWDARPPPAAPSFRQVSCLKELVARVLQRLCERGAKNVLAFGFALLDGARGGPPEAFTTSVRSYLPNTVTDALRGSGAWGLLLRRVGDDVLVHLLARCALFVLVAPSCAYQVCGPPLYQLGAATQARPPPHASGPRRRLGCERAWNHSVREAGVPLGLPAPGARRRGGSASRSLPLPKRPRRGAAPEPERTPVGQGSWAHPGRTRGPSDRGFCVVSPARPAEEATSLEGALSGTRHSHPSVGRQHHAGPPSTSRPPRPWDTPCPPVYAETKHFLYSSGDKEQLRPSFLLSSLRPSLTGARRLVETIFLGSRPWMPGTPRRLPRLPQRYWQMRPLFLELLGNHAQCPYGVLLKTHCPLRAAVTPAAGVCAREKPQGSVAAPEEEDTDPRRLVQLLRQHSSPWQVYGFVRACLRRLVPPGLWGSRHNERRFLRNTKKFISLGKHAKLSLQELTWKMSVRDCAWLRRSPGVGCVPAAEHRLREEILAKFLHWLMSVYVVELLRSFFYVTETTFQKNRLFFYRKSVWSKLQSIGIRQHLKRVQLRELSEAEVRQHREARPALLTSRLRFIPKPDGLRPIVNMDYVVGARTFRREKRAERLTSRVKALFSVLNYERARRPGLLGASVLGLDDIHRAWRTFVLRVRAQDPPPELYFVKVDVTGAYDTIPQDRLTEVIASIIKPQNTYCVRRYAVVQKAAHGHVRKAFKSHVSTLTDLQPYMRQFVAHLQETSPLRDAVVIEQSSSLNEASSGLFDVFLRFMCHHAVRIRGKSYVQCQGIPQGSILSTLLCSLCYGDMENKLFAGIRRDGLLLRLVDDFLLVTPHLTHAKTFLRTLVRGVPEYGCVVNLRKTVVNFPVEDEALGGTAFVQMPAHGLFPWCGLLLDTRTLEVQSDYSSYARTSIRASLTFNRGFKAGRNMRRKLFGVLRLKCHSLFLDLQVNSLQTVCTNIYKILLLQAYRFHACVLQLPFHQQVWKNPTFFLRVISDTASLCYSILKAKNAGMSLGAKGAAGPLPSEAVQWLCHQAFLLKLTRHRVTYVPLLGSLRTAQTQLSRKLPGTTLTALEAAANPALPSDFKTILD
The term IC50 denotes the concentration at which inhibition is half-maximal. Read a high IC50 as weaker potency. For `Nc1nc2c(c(=O)[nH]1)[n+](Cc1ccc3ccccc3c1)cn2Cc1ccc2ccccc2c1` [Compound 1, 2-amino-7,9-bis(2-naphthylmethyl)-6-oxo-6,9-dihydro-1H-purin-7-ium bromide], the IC50 is 10 µM. As for `Nc1nc2c(c(=O)[nH]1)[n+](Cc1ccc(-c3ccccc3)cc1)cn2Cc1ccc2ccccc2c1` [Compound 7, 2-amino-7-([1,1′-biphenyl]-4-ylmethyl)-9-(2-naphthylmethyl)-6-oxo-6,9-dihydro-1H-purin-7-ium bromide], the midpoint of inhibition, the IC50, lay at 4 µM. To `Nc1nc2c(c(=O)[nH]1)[n+](Cc1ccc(-c3ccccc3)cc1)cn2Cc1ccc(-c2ccccc2)cc1` [Compound 2, 2-amino-7,9-bis[(1,1′-biphenyl)-4-ylmethyl]-6-oxo-6,9-dihydro-1H-purin-7-ium bromide] belongs 3 µM; to `Nc1nc2c(c(=O)[nH]1)[n+](Cc1ccc(Cl)c(Cl)c1)cn2Cc1ccc(Cl)c(Cl)c1` [Compound 4, 2-amino-7,9-bis(3,4-dichlorobenzyl)-6-oxo-6,9-dihydro-1H-purin-7-ium bromide], 10 µM.

The record behind these values is patent publication US20050037990A1, “Disubstituted 7,9-guanines halides as telomerase inhibitors” (priority 2001, published 2005).
